8 molecules from PubChem BioAssay AID1918930 (Molecular Pharmacology Branch, DTP, NCI, 2023) can be followed below.

For this experiment, the system named is 233499-124-R-J3-PDC complex spheroid viability, % test/control. The experiment in a line: Anticancer human tumor 233499-124-R-J3-PDC patient-derived colon adenocarcinoma cell line growth inhibition. The settings on record: for viability, T/C: stronger effect = lower value. A digest of the protocol: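 Drug combinations with the LSD1 inhibitor iadademstat tested on tumor cells co-cultured as spheroids with endothelial cells and mesenchymal stem cells. Concentrations descended in half-log increments from clinical Cmax or 10 microM.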

Where [1] appears, read: curve of first compound, second compound 0.1 µM.
The mark [2] stands for this setting: curve of first compound, second compound 0.316 µM.
The mark [3] stands for this setting: curve of first compound, second compound 1 µM.
The mark [4] stands for this setting: curve of first compound, second compound 3.16 µM.
[5] abbreviates: curve of first compound, second compound 10 µM.
Setting [6] is: second compound 0.1 µM, first compound 0.00316 µM.
Setting [7] is: second compound 0.1 µM, first compound 0.01 µM.
Where [8] appears, read: second compound 0.1 µM, first compound 0.0316 µM.
The mark [9] stands for this setting: second compound 0.1 µM, first compound 0.1 µM.
[10] abbreviates: second compound 0.1 µM, first compound 0.316 µM.
The mark [11] stands for this setting: second compound 0.1 µM, first compound 1 µM.
The mark [12] stands for this setting: second compound 0.316 µM, first compound 0.00316 µM.
Setting [13] is: second compound 0.316 µM, first compound 0.01 µM.
The mark [14] stands for this setting: second compound 0.316 µM, first compound 0.0316 µM.
The mark [15] stands for this setting: second compound 0.316 µM, first compound 0.1 µM.
Setting [16] is: second compound 0.316 µM, first compound 0.316 µM.
Setting [17] is: second compound 0.316 µM, first compound 1 µM.
[18] abbreviates: second compound 1 µM, first compound 0.00316 µM.
Setting [19] is: second compound 1 µM, first compound 0.01 µM.
Setting [20] is: second compound 1 µM, first compound 0.0316 µM.
The mark [21] stands for this setting: second compound 1 µM, first compound 0.1 µM.
Where [22] appears, read: second compound 1 µM, first compound 0.316 µM.
[23] abbreviates: second compound 1 µM, first compound 1 µM.
The mark [24] stands for this setting: second compound 3.16 µM, first compound 0.00316 µM.
Setting [25] is: second compound 3.16 µM, first compound 0.01 µM.
[26] abbreviates: second compound 3.16 µM, first compound 0.0316 µM.
Where [27] appears, read: second compound 3.16 µM, first compound 0.1 µM.
The mark [28] stands for this setting: second compound 3.16 µM, first compound 0.316 µM.
Where [29] appears, read: second compound 3.16 µM, first compound 1 µM.
Where [30] appears, read: second compound 10 µM, first compound 0.00316 µM.
Setting [31] is: second compound 10 µM, first compound 0.01 µM.
[32] abbreviates: second compound 10 µM, first compound 0.0316 µM.
Where [33] appears, read: second compound 10 µM, first compound 0.1 µM.
[34] abbreviates: second compound 10 µM, first compound 0.316 µM.
[35] abbreviates: second compound 10 µM, first compound 1 µM.

By viability, T/C is commonly meant the ratio of treated to control. For orientation: IC50 means the midpoint of a concentration-inhibition curve.

“And” between values parts separate entries of the source, which are not always exact repeats. Identical values can stand only once.
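Note: spheroids exposed to agents for one week before readout.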

With `COc1cc(C2c3cc4c(cc3C(OC3OC5COC(C)OC5C(O)C3O)C3COC(=O)C23)OCO4)cc(OC)c1O` (stereo not given), the viability, T/C by setting is: (compound 0.00949 µM) 90.2% and 92.1%; (compound 0.03 µM) 91.5% and 80.9%; (compound 0.0949 µM) 97.4% and 88.9%; (compound 0.3 µM) 89% and 59.5%; (compound 0.949 µM) 65.2% and 53.7%; (compound 3 µM) 59% and 47.7%. Where the note is “curve of compound”, the IC50 is greater than 3000 nM.
Regarding `CC1COCCN1c1cc(-c2ccnn2C)c2ccnc(-c3ccn[nH]3)c2n1` (stereo not given) + NC1CC1c1ccc(-c2cccc(O)c2)cc1, the IC50 is greater than 1000 nM under setting [1]; greater than 1000 nM under setting [2]; greater than 1000 nM under setting [3]; less than 3.16 nM under setting [4]; less than 3.16 nM under setting [5]. Also, the viability, T/C runs as follows: under setting [6], 60.7%; under setting [7], 63.2%; under setting [8], 36.7%; under setting [9], 39.4%; under setting [10], 56.4%; under setting [11], 102%. Moreover, the viability, T/C under setting [12] was 62.7%; the viability, T/C under setting [13] was 75.6%; the viability, T/C under setting [14] was 38.9%; the viability, T/C under setting [15] was 36.6%; the viability, T/C under setting [16] is 43.7%; the viability, T/C under setting [17] is 87.3%. The viability, T/C is 64.1% under setting [18]; 59.6% under setting [19]; 37.4% under setting [20]; 40.1% under setting [21]; 39.1% under setting [22]; 81.8% under setting [23]. For the same molecule, the viability, T/C was 60.5% under setting [24]; 50.9% under setting [25]; 39.5% under setting [26]; 42.7% under setting [27]; 44.2% under setting [28]; 82.1% under setting [29]. In addition, the viability, T/C is, setting by setting: under setting [30], 53.4%; under setting [31], 42.1%; under setting [32], 32.7%; under setting [33], 36.2%; under setting [34], 32.9%; under setting [35], 76.5%.
Take `O=C(c1cc(Cc2n[nH]c(=O)c3ccccc23)ccc1F)N1CCN(C(=O)C2CC2)CC1` + NC1CCC(NC2CC2c2ccccc2)CC1: the IC50 reads like this: under setting [1], greater than 10000 nM; under setting [2], greater than 10000 nM; under setting [3], greater than 10000 nM; under setting [4], greater than 10000 nM; under setting [5], greater than 10000 nM. Also, the viability, T/C reads like this: under setting [8], 101%; under setting [9], 107%; under setting [10], 102%; under setting [11], 102%; (second compound 0.1 µM, first compound 3.16 µM) 91.7%; (second compound 0.1 µM, first compound 10 µM) 81.6%. For the same molecule, the viability, T/C is 109% under setting [14]; 102% under setting [15]; 90.5% under setting [16]; 92.3% under setting [17]; 85.6% (second compound 0.316 µM, first compound 3.16 µM); 97.3% (second compound 0.316 µM, first compound 10 µM). In addition, the viability, T/C by setting is: under setting [20], 94.5%; under setting [21], 83.3%; under setting [22], 71.1%; under setting [23], 81.3%; (second compound 1 µM, first compound 3.16 µM) 86.1%; (second compound 1 µM, first compound 10 µM) 95%. The viability, T/C runs as follows: under setting [26], 82.7%; under setting [27], 90.5%; under setting [28], 84.8%; under setting [29], 75.3%; (second compound 3.16 µM, first compound 3.16 µM) 87.1%; (second compound 3.16 µM, first compound 10 µM) 79.5%. In addition, the viability, T/C runs as follows: under setting [32], 79.4%; under setting [33], 68.2%; under setting [34], 67.8%; under setting [35], 69.2%; (second compound 10 µM, first compound 3.16 µM) 79.6%; (second compound 10 µM, first compound 10 µM) 69%.
In the case of `NC1CC1c1ccc(-c2cccc(O)c2)cc1` (stereo not given), the viability, T/C (compound 0.1 µM) was 91.3% and 107%. For the same molecule, the IC50 (compound alone, run of 02/01/2022) was greater than 10000 nM.
Turning to `NS(=O)(=O)OCC1CC(n2ccc3c(NC4CCc5ccccc54)ncnc32)CC1O` (stereo not given), the viability, T/C by setting is: (compound 0.00949 µM) 106% and 87.5%; (compound 0.03 µM) 58.4% and 62.6%; (compound 0.0949 µM) 35.3% and 33.8%; (compound 0.3 µM) 12.7% and 6.06%; (compound 0.949 µM) 7.91% and 3.62%; (compound 3 µM) 6.79% and 2.48%. Moreover, under “curve of compound”, the 50% inhibitory concentration (IC50) was 44.9 nM and 49.1 nM.
As to `CC[C@@]1(O)C(=O)OCc2c1cc1n(c2=O)Cc2cc3c(CN(C)C)c(O)ccc3nc2-1` + NC1CCC(NC2CC2c2ccccc2)CC1, the IC50 was greater than 100 nM under setting [1]; 31.6 nM under setting [2]; greater than 100 nM under setting [3]; greater than 100 nM under setting [4]; greater than 100 nM under setting [5]. Moreover, the viability, T/C is 104% (second compound 0.1 µM, first compound 0.000316 µM); 76.6% (second compound 0.1 µM, first compound 0.001 µM); 79.7% under setting [6]; 64% under setting [7]; 71.9% under setting [8]; 87.9% under setting [9]. Also, the viability, T/C reads like this: (second compound 0.316 µM, first compound 0.000316 µM) 93.7%; (second compound 0.316 µM, first compound 0.001 µM) 80.1%; under setting [12], 88.9%; under setting [13], 47.5%; under setting [14], 54.5%; under setting [15], 66.1%. Besides, the viability, T/C by setting is: (second compound 1 µM, first compound 0.000316 µM) 65.9%; (second compound 1 µM, first compound 0.001 µM) 63.9%; under setting [18], 50.3%; under setting [19], 51.5%; under setting [20], 71.2%; under setting [21], 63.8%. Also, the viability, T/C by setting is: (second compound 3.16 µM, first compound 0.000316 µM) 92%; (second compound 3.16 µM, first compound 0.001 µM) 74.9%; under setting [24], 56.8%; under setting [25], 53.6%; under setting [26], 58.8%; under setting [27], 69.9%. In addition, the viability, T/C was 76.9% (second compound 10 µM, first compound 0.000316 µM); 82.9% (second compound 10 µM, first compound 0.001 µM); 68.4% under setting [30]; 48% under setting [31]; 60.8% under setting [32]; 80.7% under setting [33].
For `O=C(c1cc(Cc2n[nH]c(=O)c3ccccc23)ccc1F)N1CCN(C(=O)C2CC2)CC1`, the viability, T/C runs as follows: (compound 0.0316 µM) 91.1% and 97.1%; (compound 0.1 µM) 92.6% and 76.9%; (compound 0.316 µM) 113% and 88.8%; (compound 1 µM) 97.3% and 90.8%; (compound 3.16 µM) 76.1% and 75.5%; (compound 10 µM) 80.3% and 84.2%. Also, the IC50 (curve of compound) was greater than 10000 nM.
Consider `O=C(C=Cn1cnc(-c2cc(C(F)(F)F)cc(C(F)(F)F)c2)n1)NNc1cnccn1`, for which the viability, T/C was 102% and 76.2% (compound 0.00316 µM); 106% and 79.7% (compound 0.01 µM); 98.9% and 61.4% (compound 0.0316 µM); 54.3% and 71.6% (compound 0.1 µM); 46.3% and 88.5% (compound 0.316 µM); 11.6% and 62% (compound 1 µM). The IC50 (curve of compound) is 192 nM and > 1000 nM.
